According to patent US20060211724A1, “Hiv integrase inhibitors” (priority 2003, published 2006):

What follows are compounds tested against T1, Recombinant His-tagged HIV-1 integrase (Human immunodeficiency virus type 1 group M subtype B, UniProt P12497, C1427S/F1332K) (assay: Enzymatic integrase assay (oligonucleotide-based DNA strand transfer, ELISA)). Conditions: not given.
T1 construct: Recombinant His-tagged HIV-1 integrase; His; made in house; host or cells: E. coli BL21(DE3)
Assay type: biochemical
Method: Enzymatic Integrase Assay
The activity of HIV-integrase was determined using an oligonucleotide-based assay in which the DNA strand transfer by preformed complexes of integrase and processed DNA was measured by means of an enzyme-linked immunosorbent assay (ELISA) in microtiter plate format. Recombinant His-tagged HIV-1 integrase was produced in the E. coli strain BL21(DE3) from the plasmid pINSD.His.sol (available from NTH) after induction with isopropyl-β-D-thiogalactopyranoside (IPTG) according to described procedures (cfr. ref. Jenkins et al., “A soluble active mutant of HIV-1 integrase”, J. Biol. Chem. 271 ([…]), 7712-7718). HPLC-purified oligodeoxynucleotides were obtained from Proligo, and used for preparation of the viral DNA substrate and target DNA.
INb-1C is 5′-biotinylated, INT5 and INT6 are at the 3′-end labeled with FITC. INb-1C and IN-1NC correspond to the U5 end of the HIV-1 LTR. The DNA substrate for the integrase reactions was made by annealing INb-1C and IN-1NC. An equimolar mixture of INb-1C and IN-1NC was heated shortly at 95° C. in the presence of 100 mM NaCl and allowed to cool slowly to room temperature. In the same way, INT5 and INT6 were annealed to produce a target DNA molecule.
The integration strand transfer reactions were performed in the following way:
20 nM biotinylated DNA substrate INb-1C/IN-1NC was pre-incubated with 300 nM HIV-integrase at 37° C. for 5 min, to allow the cleavage reaction to occur. The candidate compounds and 50 nM target DNA INT5/INT6 were added to the reaction mix containing 20 mM Hepes pH 7.5, 25 mM NaCl, 5 mM MnCl2, 2 mM DTT, and 50 μg/ml BSA, and incubated for 2 h at 37° C. The reaction mix was transferred to streptavidin-coated plates (Exiqon), which were prewashed (three times) with 5×SSCT, and incubated for 1 h at room temperature to allow capture of the biotinylated viral DNA/target DNA complex. Plates were washed three times with 2×SSCT buffer, and anti-FITC POD-coupled antibody (Roche) was added and incubated for 1 h at room temperature to detect integrated FITC-labeled target DNA. After a final washing step with PBST (5 times), BM chemiluminescent POD-substrate (Roche) was added, and luminescence was read out.
The table below list the pIC50 values for those compounds tested in the enzymatic integrase assay. The pIC50 is expressed in Molar units and is the value according to the following formula: pIC50=−log IC50
wherein the IC50 value is the drug concentration at which 50% of the enzyme or viral activity is inhibited.
Cc1ccc2c(O)c3c(c(O)c2n1)C(=O)N(C(C)c1ccccc1)C3=O (centres unmarked) [Compound 8, 5,9-Dihydroxy-2-methyl-7-(1-phenyl-ethyl)-pyrrolo[3,4-g]quinoline-6,8-dione] gave an IC50 of 10700 nM.
COc1ccc(CN2C(=O)c3c(c(O)c4nc(C)ccc4c3O)C2=O)cc1 [Compound 23, 5,9-Dihydroxy-7-(4-methoxy-benzyl)-2-methyl-pyrrolo[3,4-g]quinoline-6,8-dione] gave an IC50 of 1480 nM.
Work on O=C1c2c(c(O)c3nccnc3c2O)C(=O)N1CCN1CCOCC1 [Compound 28, 5,9-Dihydroxy-7-(2-morpholine-4-yl-ethyl)-pyrrolo[3,4-g]quinoxaline-6,8-dione] yielded an IC50 of 66100 nM.
O=C1c2c(c(O)c3ccccc3c2O)C(=O)N1Cc1ccc(F)cc1 [Compound 11, 2-(4-Fluoro-benzyl)-4,9-dihydroxy-benzo[f]isoindole-1,3-dione] gave an IC50 greater than 100000 nM.
O=C1c2c(c(O)c3nccnc3c2O)C(=O)N1CCc1ccccc1 [Compound 14, 5,9-Dihydroxy-7-phenethyl-pyrrolo[3,4-g]quinoxaline-6,8-dione] was tested, and the IC50 was 2040 nM.
Compound Cc1ccc2c(O)c3c(c(O)c2n1)C(=O)N(Cc1ccc(F)cc1)C3=O [Compound 22, 7-(4-Fluoro-benzyl)-5,9-dihydroxy-2-methyl-pyrrolo[3,4-g]quinoline-6,8-dione] has an IC50 of 398 nM.
In the case of Cc1ccc(CN2C(=O)c3c(c(O)c4nccnc4c3O)C2=O)cc1 [Compound 3, 5,9-Dihydroxy-7-(4-methyl-benzyl)-pyrrolo[3,4-g]quinoxaline-6,8-dione], the IC50 is reported as 1580 nM.
Work on O=C1c2c(c(O)c3ncccc3c2O)C(=O)N1Cc1ccc2c(c1)OCO2 [Compound 5, 7-Benzo[1,3]dioxol-5-ylmethyl-5,9-dihydroxy-pyrrolo[3,4-g]quinoline-6,8-dione] yielded an IC50 of 5620 nM.
O=C1c2c(c(O)c3ncccc3c2O)C(=O)N1CCc1ccccc1 [Compound 24, 5,9-Dihydroxy-7-phenethyl-pyrrolo[3,4-g]quinoline-6,8-dione] gave an IC50 of 2510 nM.
With CS(=O)(=O)c1ccc(CN2C(=O)c3c(c(O)c4nccnc4c3O)C2=O)cc1 [Compound 34, 5,9-Dihydroxy-7-(4-methanesulfonyl-benzyl)-pyrrolo[3,4-g]quinoxaline-6,8-dione] the IC50 was 8710 nM.
With Cc1ccc2c(O)c3c(c(O)c2n1)C(=O)N(Cc1ccc2c(c1)OCO2)C3=O [Compound 20, 7-Benzo[1,3]dioxol-5-ylmethyl-5,9-dihydroxy-2-methyl-pyrrolo[3,4-g]quinoline-6,8-dione] the IC50 was 2140 nM.
Work on O=C1c2c(c(O)c3nccnc3c2O)C(=O)N1Cc1cccc(F)c1 [Compound 16, 7-(3-Fluoro-benzyl)-5,9-dihydroxy-pyrrolo[3,4-g]quinoxaline-6,8-dione] yielded an IC50 of 562 nM.
O=C1c2c(c(O)c3nccnc3c2O)C(=O)N1Cc1ccncc1 [Compound 29, 5,9-Dihydroxy-7-pyridin-4-ylmethyl-pyrrolo[3,4-g]quinoxaline-6,8-dione] was tested, and the IC50 was 6760 nM.
Compound O=C1c2c(c(O)c3nccnc3c2O)C(=O)N1Cc1ccc(Oc2ccccc2)cc1 [Compound 7, 5,9-Dihydroxy-7-(4-phenoxy-benzyl)-pyrrolo[3,4-g]quinoxaline-6,8-dione] has an IC50 of 4900 nM.
Compound CC(C)CCOc1c2c(c(O)c3nccnc13)C(=O)N(Cc1ccc3c(c1)OCO3)C2=O [Compound 37, 7-Benzo[1,3]dioxol-5-ylmethyl-5-hydroxy-9-(3-methyl-butoxy)-pyrrolo[3,4-g]quinoxaline-6,8-dione] has an IC50 of 1480 nM.
Work on C#CCOc1c2c(c(O)c3nccnc13)C(=O)N(Cc1ccc3c(c1)OCO3)C2=O [Compound 36, 7-Benzo[1,3]dioxol-5-ylmethyl-5-hydroxy-9-prop-2-ynyloxy-pyrrolo[3,4-g]quinoxaline-6,8-dione] yielded an IC50 of 18200 nM.
Compound O=C1c2c(c(O)c3nccnc3c2O)C(=O)N1CC1CCCCC1 [Compound 26, 7-Cyclohexylmethyl-5,9-Dihydroxy-pyrrolo[3,4-g]quinoxaline-6,8-dione] has an IC50 of 2190 nM.
For O=C1c2c(c(O)c3[nH]cnc3c2O)C(=O)N1Cc1ccc2c(c1)OCO2 [Compound 39, 6-Benzo[1,3]dioxol-5-ylmethyl-4,8-dihydroxy-1H-1,3,6-triaza-s-indacene-5,7-dione], the IC50 was 2040 nM.
Work on O=C1c2c(c(O)c3nccnc3c2O)C(=O)N1Cc1cccc2ccccc12 [Compound 27, 5,9-Dihydroxy-7-naphthalen-1-ylmethyl-pyrrolo[3,4-g]quinoxaline-6,8-dione] yielded an IC50 of 1410 nM.
Compound O=C1c2c(c(O)c3nccnc3c2O)C(=O)N1Cc1ccc(Br)cc1 [Compound 4, 7-(4-Bromo-benzyl)-5,9-dihydroxy-pyrrolo[3,4-g]quinoxaline-6,8-dione] has an IC50 of 219 nM.
With O=C1c2c(c(O)c3c(ncn3Cc3ccccc3)c2O)C(=O)N1Cc1ccc2c(c1)OCO2 [Compound 38, 6-Benzo[1,3]dioxol-5-ylmethyl-1-benzyl-4,8-dihydroxy-1H-1,3,6-triaza-s-indacene-5,7-dione] the IC50 was 479 nM.
With CC(c1ccccc1)N1C(=O)c2c(c(O)c3ccccc3c2O)C1=O (centres unmarked) [Compound 42, 4,9-Dihydroxy-2-(1-phenyl-ethyl)-benzo[f]isoindole-1,3-dione] the IC50 was greater than 100000 nM.
For O=C1c2c(c(O)c3nccnc3c2O)C(=O)N1Cc1cccc(CN2C(=O)c3c(c(O)c4nccnc4c3O)C2=O)c1 [Compound 18, 7-[3-(5,9-Dihydroxy-6,8-dioxo-6,8-dihydro-pyrrolo[3,4-g]quinoxalin-7-ylmethyl)-benzyl]-5,9-dihydroxy-pyrrolo[3,4-g]quinoxaline-6,8-dione], the IC50 was 7590 nM.
With O=C1c2c(c(OCc3ccccc3)c3nccnc3c2O)C(=O)N1Cc1ccc2c(c1)OCO2 [Compound 31, 7-Benzo[1,3]dioxol-5-ylmethyl-5-benzyloxy-9-hydroxy-pyrrolo[3,4-g]quinoxaline-6,8-dione] the IC50 was greater than 100000 nM.
Compound Cc1ccc2c(O)c3c(c(O)c2n1)C(=O)N(CCc1ccccc1)C3=O [Compound 19, 5,9-Dihydroxy-2-methyl-7-phenethyl-pyrrolo[3,4-g]quinoline-6,8-dione] has an IC50 of 4170 nM.
C[C@H](c1ccccc1)N1C(=O)c2c(c(O)c3nccnc3c2O)C1=O [Compound 15, 5,9-Dihydroxy-7-(1-(R)-phenyl-ethyl)-pyrrolo[3,4-g]quinoxaline-6,8-dione] was tested, and the IC50 was 1050 nM.
Cc1ccc2c(O)c3c(c(O)c2n1)C(=O)N(Cc1cccc(F)c1)C3=O [Compound 21, 7-(3-Fluoro-benzyl)-5,9-dihydroxy-2-methyl-pyrrolo[3,4-g]quinoline-6,8-dione] was tested, and the IC50 was 871 nM.
CC(c1ccccc1)N1C(=O)c2c(c(O)c3c(ncn3Cc3ccccc3)c2O)C1=O (centres unmarked) [Compound 40, 1-Benzyl-4,8-dihydroxy-6-(1-phenyl-ethyl)-1H-1,3,6-triaza-s-indacene-5,7-dione] was tested, and the IC50 was 1120 nM.
O=C1c2c(c(O)c3nccnc3c2O)C(=O)N1c1ccccc1Br [Compound 35, 7-(2-Bromo-phenyl)-5,9-dihydroxy-pyrrolo[3,4-g]quinoxaline-6,8-dione] gave an IC50 of 1820 nM.
O=C1c2c(c(O)c3nccnc3c2O)C(=O)N1c1ccc2c(c1)OCO2 [Compound 10, 7-Benzo[1,3]dioxol-5-yl-5,9-dihydroxy-pyrrolo[3,4-g]quinoxaline-6,8-dione] gave an IC50 of 10000 nM.
With O=C1c2c(c(O)c3nccnc3c2O)C(=O)N1C1CCCC1 [Compound 32, 7-Cyclopentyl-5,9-dihydroxy-pyrrolo[3,4-g]quinoxaline-6,8-dione] the IC50 was 10500 nM.
O=C1c2c(c(O)c3nccnc3c2O)C(=O)N1c1ccc(F)cc1 [Compound 33, 7-(4-Fluoro-phenyl)-5,9-dihydroxy-pyrrolo[3,4-g]quinoxaline-6,8-dione] was tested, and the IC50 was 21900 nM.
CC(c1ccccc1)N1C(=O)c2c(c(O)c3nccnc3c2O)C1=O (centres unmarked) [Compound 25, 5,9-Dihydroxy-7-(1-phenyl-ethyl)-pyrrolo[3,4-g]quinoxaline-6,8-dione] gave an IC50 of 2040 nM.
Work on O=C1c2c(c(O)c3ccccc3c2O)C(=O)N1CCc1ccccc1 [Compound 12, 4,9-Dihydroxy-2-phenethyl-benzo[f]isoindole-1,3-dione] yielded an IC50 greater than 100000 nM.

Same assay, conditions: pIC50=−log IC50, expressed in Molar units; strand transfer, 5 mM MnCl2, 2 h at 37° C.
CCOC(=O)C(=O)Oc1c2c(c(O)c3nccnc13)CN(Cc1ccc3c(c1)OCO3)C2 [Compound 6, Oxalic acid 7-benzo[1,3]dioxol-5-ylmethyl-9-hydroxy-6,8-dihydro-6H-pyrrolo[3,4-g]quinoxalin-5-yl ester ethyl ester] was tested, and the pIC50 was 5.50.
